Results: patent US20220235034A1, “SELECTIVE HISTAMINE H3 RECEPTOR ANTAGONISTS FOR TREATING AUTISM SPECTRUM DISORDER” (RICHTER GEDEON NYRT., priority 2019, published 2022)
Entries after “also recorded” stand apart in the source; their conditions may differ.

Legend:
[1] = test system: prenatally valproate-treated rats; experiment: social play assay in prenatally valproate-treated rats; format: in vivo, rat; details: postnatal day 30
Experimental: (§1) In this method, time-mated female Wistar rats are administered a single dose of VPA (600 mg/kg, i.p.) on gestational day 12.5. Offspring are housed according to standard laboratory conditions until time of behavioral testing. Animals are housed in groups of 4 in conventional cages and maintained at 22-24° C. on a standard 12 hours light/dark cycle, with food and water available ad libitum. After investigational drug treatment, offspring are examined behaviorally in tests relevant for the assessment of autistic behavior. These tests include social play, social preference and social recognition memory. These tests are suitable to assess behavioral elements that represent core ASD symptoms in experimental animals. Efficaciousness of an investigational compound (ie. improvement of behavioral deficits induced by prenatal VPA exposure) may indicate usefulness in the pharmacotherapy of core symptoms of ASD. Doses of the investigational drug were corrected for the dicitrate salt with a correction factor of 2.07 and are expressed as free base. Reference is herein made to a parallel patent application filed by the applicant with the title of “Selective histamine H3 receptor antagonist acid addition salts and process for the preparation thereof” wherein the salts, including dicitrate salt is disclosed in detail.
Social play is a type of social interaction that is highly typical of adolescent mammals including rodents as well as humans (Vanderschuren and Trezza, Curr. Topics Behav. Neurosci. 2014, 16:189-212). Social play behavior is indicative of healthy social functioning in adult life and is defective after prenatal VPA treatment in the offspring (Schneider and Przewlocki Neuropsychopharmacology 2005, 30:80-89). At postnatal day 30, following 8 days treatment with the test compound, prenatally VPA-treated rats are evaluated for juvenile play behavior. The test is carried out in a test arena unknown to the rats with pairs of animals from the same treatment group over a 15 min trial. Animals are scored for duration of social play behavior. […]

[2] = test system: prenatally valproate-treated rats; experiment: social recognition memory in the 3-chamber apparatus in prenatally valproate-treated rats; format: in vivo, rat; details: postnatal day 60
Experimental: In this method, time-mated female Wistar rats are administered a single dose of VPA (600 mg/kg, i.p.) on gestational day 12.5. Offspring are housed according to standard laboratory conditions until time of behavioral testing. Animals are housed in groups of 4 in conventional cages and maintained at 22-24° C. on a standard 12 hours light/dark cycle, with food and water available ad libitum. After investigational drug treatment, offspring are examined behaviorally in tests relevant for the assessment of autistic behavior. These tests include social play, social preference and social recognition memory. These tests are suitable to assess behavioral elements that represent core ASD symptoms in experimental animals. […] Doses of the investigational drug were corrected for the dicitrate salt with a correction factor of 2.07 and are expressed as free base. […]
(§2) The social preference and recognition memory assays in a 3-chamber apparatus are further indicators of intact social behavior in rats. […] On postnatal day 59, prenatally VPA-treated rats are assessed for their social preference following 8 days of per os treatment with the test compound. On postnatal day 60, the same rats are assessed for their social recognition memory after 9 days of per os treatment with the test compound. […]

[3] = test system: prenatally valproate-treated rats; experiment: social preference in the 3-chamber apparatus in prenatally valproate-treated rats; format: in vivo, rat; details: postnatal day 59
Experimental: as §1
as §2, with “rats. The preference of a conspecific over an inanimate object as well as the ability to distinguish between familiar and novel conspecifics are necessary for normal social functioning and are defective in the prenatal VPA model in rats (Bambini-Junior et al., Brain Res. 2011, 1408:8-16).” for “rats.”

[4] = test system: prenatally valproate-exposed rat pups; experiment: maternal deprivation-induced ultrasonic vocalization in prenatally valproate-exposed rat pups; format: in vivo; details: 0.01-1 mg/kg oral, co-administered with oral risperidone 0.003 mg/kg; prenatal valproate 300 mg/kg
Experimental: Maternal deprivation-induced ultrasonic vocalization in rat pups is a readout of socio-communicational function that is impaired in offspring after prenatal exposure to VPA (Gandal et al., Biol. Psychiatry 2010, 68, 1100-1106). To induce ultrasonic calls, prenatally VPA treated rat pups are placed individually into a cage where calls are being recorded with bat microphones. Calls are digitized with an audio filter and ultrasonic vocalization is recorded and quantified with SonoTrack software (Metris bv. The Netherlands). Baseline vocalization is measured on postnatal days 11-12 days for 10 min. Animals are divided into homogenous groups based on baseline vocalizations. On postnatal day 13, animals are treated p.o. with the appropriate doses of drug or vehicle 60 min before measurement and then returned to their nests until recording. Ultrasonic call counts are recorded for 10 min. Statistical analysis is performed on ultrasonic call counts with the non-parametric Kruskal-Wallis test and the post hoc Dunnett test.
The behavioral effect of the co-administration of 1-[4-(4-{3-[(2R)-2-methyl-pyrrolidin-1-yl]-propoxy)-phenoxy)-piperidin-1-yl]-ethan-1-one dicitrate and risperidone was studied in prenatally valproate-exposed (300 mg/kg) rat pups on ultrasound emissions induced by separation from their mothers. […]

[5] = test system: prenatal valproate exposure model; details: dose of risperidone applied in the present study (0.003 mg/kg); cited from earlier work

| SMILES | significance of effect on social play versus VPA+VEH ([1]; 0.1 mg/kg per os once daily for 8 days, dicitrate) | significance of effect on social play versus VPA+VEH ([1]; 1 mg/kg per os once daily for 8 days) | reversal of the social play deficit induced by prenatal valproate treatment (duration of social play behavior) ([1]; per os once daily for 8 days, doses 0.01, 0.1 and 1 mg/kg (as free base), dicitrate) | effect on social recognition memory versus VPA+VEH familiar ([2]; 1 mg/kg per os once daily for 9 days, dicitrate) | reversal of the social recognition deficit induced by prenatal valproate treatment ([2]; per os once daily for 9 days, doses 0.01, 0.1 and 1 mg/kg) | effect on social preference versus VPA+VEH ([3]; 0.1 mg/kg per os once daily for 8 days) | effect on social preference versus VPA+VEH ([3]; 1 mg/kg per os once daily for 8 days, dicitrate) | reversal of the social preference deficit induced by prenatal valproate treatment ([3]; per os once daily for 8 days, doses 0.01, 0.1 and 1 mg/kg) | reversal of the socio-communicational defect (ultrasound emissions induced by separation from mothers) [4] | efficacy signal in the prenatal valproate exposure model [5] |
| --- | --- | --- | --- | --- | --- | --- | --- | --- | --- | --- |
| CC(=O)N1CCC(Oc2ccc(OCCCN3CCC[C@H]3C)cc2)CC1 [1-[4-(4-{3-[(2R)-2-methylpyrrolidin-1-yl]-propoxy}-phenoxy)-piperidin-1-yl]-ethan-1-on dicitrate] | statistically significant; also recorded: reaching significance | statistically significant | reversed the social play deficit; also recorded: partially reversed social play deficits | statistically significant; also recorded: fully reversed social recognition memory deficits | reversed the social recognition deficit | statistically significant | statistically significant; also recorded: fully reversed social preference deficits | reversed the social preference deficit | dose-proportionally reversed the socio-communicational defect | – |
| Cc1nc2n(c(=O)c1CCN1CCC(c3noc4cc(F)ccc34)CC1)CCCC2 [risperidone] | – | – | – | – | – | – | – | – | – | produce an efficacy signal |
